{
  "source": "ChEMBL document CHEMBL3352562",
  "about": "“(±)-Quassidines I and J, two pairs of cytotoxic bis-β-carboline alkaloid enantiomers from Picrasma quassioides” (J Nat Prod, 2015)",
  "assay_type_in_all_cases": "functional, cell-based",
  "key": {"[1]": {"assay": "Cytotoxicity against human MKN28 cells assessed as cell survival after 48 hrs by MTT assay", "settings": "MKN-28, 48 h"}, "B16": {"tested_on": "B16", "assay": "Cytotoxicity against mouse B16 cells assessed as cell survival after 48 hrs by MTT assay", "settings": "B16, 48 h"}, "HeLa": {"tested_on": "HeLa", "assay": "Cytotoxicity against human HeLa cells assessed as cell survival after 48 hrs by MTT assay"}},
  "data": [
    {"smiles": "COc1cccc2c1[nH]c1c3[n+](cc(OC)c12)[C@H](c1ncc(OC)c2c1[nH]c1ccccc12)CCC3", "values": [
      {"measurement": "IC50", "setting": "[1]", "result": 6.3, "unit": "µM"},
      {"measurement": "IC50", "setting": "B16", "result": 10.8, "unit": "µM"},
      {"measurement": "IC50", "setting": "HeLa", "result": 5.75, "unit": "µM"}
    ]},
    {"smiles": "COc1cccc2c1[nH]c1c3[n+](cc(OC)c12)[C@@H](c1ncc(OC)c2c1[nH]c1ccccc12)CCC3", "values": [
      {"measurement": "IC50", "setting": "[1]", "result": 12.3, "unit": "µM"},
      {"measurement": "IC50", "setting": "B16", "result": 15.4, "unit": "µM"},
      {"measurement": "IC50", "setting": "HeLa", "result": 10.5, "unit": "µM"}
    ]},
    {"smiles": "COc1cccc2c1[nH]c1c([C@@H]3CCCc4c5[nH]c6c(O)cccc6c5c(OC)c[n+]43)ncc(OC)c12", "values": [
      {"measurement": "IC50", "setting": "[1]", "result": 4.91, "unit": "µM"},
      {"measurement": "IC50", "setting": "B16", "result": 9.34, "unit": "µM"},
      {"measurement": "IC50", "setting": "HeLa", "result": 4.03, "unit": "µM"}
    ]},
    {"smiles": "COc1cccc2c1[nH]c1c([C@H]3CCCc4c5[nH]c6c(O)cccc6c5c(OC)c[n+]43)ncc(OC)c12", "values": [
      {"measurement": "IC50", "setting": "[1]", "result": 9.64, "unit": "µM"},
      {"measurement": "IC50", "setting": "B16", "result": 14.8, "unit": "µM"},
      {"measurement": "IC50", "setting": "HeLa", "result": 10.9, "unit": "µM"}
    ]},
    {"smiles": "O=c1[nH]cc(F)c(=O)[nH]1", "note": "[FLUOROURACIL]", "values": [
      {"measurement": "IC50", "setting": "[1]", "result": 9.67, "unit": "µM"},
      {"measurement": "IC50", "setting": "B16", "result": 7.64, "unit": "µM"},
      {"measurement": "IC50", "setting": "HeLa", "result": 13.5, "unit": "µM"}
    ]}
  ]
}
